Where two headings read alike, the source gives them in different places.
Assays:
male ICR mice = tested on: male ICR mice; design: method as in doi:10.1248/jhs1956.39.4_289; details: six days per week, 30 days, cited from earlier work
[1] = tested on: type 2 diabetic ob/ob mice; format: in vivo; details: for ALP (plasma) / ALT (plasma) / AST (plasma) / BUN (plasma): mouse, in vivo, po; for Insulin (fasting plasma) / HbA1c / Adiponectin (plasma) / TG (plasma) / T-CHO (plasma): ob/ob mice after 28 days oral treatment; for Insulin (fasting plasma): control 2.2 ± 1.0; for HbA1c: control 7.9 ± 0.8; for Adiponectin (plasma): control 8.2 ± 1.1; for TG (plasma): control 83 ± 16; for T-CHO (plasma): control 195 ± 16
Experimental: (§1) After OGTT, HbA1c levels were measured in blood obtained from the mouse tail vein using an immunoassay with a DCA 2000 analyzer (Bayer-Sankyo Co., Ltd., Tokyo, Japan). The mice were subjected to a 12-h fast and blood samples were collected from the orbital vein or postcaval vein under isoflurane anesthesia using heparinized tools. Collected samples were then centrifuged at 650× g for 10 min at 4 °C, and the resultant plasma samples were used to analyze various biochemical parameters. The levels of AST, ALT, BUN, TG, T-CHO, and ALP in plasma samples were determined using a Fuji Dry Chem system. The plasma levels of insulin and adiponectin were determined using an ultra-sensitive Mouse Insulin ELISA Kit (Morinaga Institute of Biological Science, Inc., Kanagawa, Japan) and an adiponectin immunoassay kit (R&D Systems Inc., Minneapolis, MN, USA), respectively. After collecting the blood samples, mice were subjected to dissection under isoflurane anesthesia, and the resultant tissue samples were washed in saline. Each of the samples was dehydrated for a week in desiccators, weighed, and then heated in 5% HNO3 (5 mL) for 5 h at 110 °C in a closed system. The resultant solution was centrifuged at 1250× g for 15 min, and the supernatant was diluted using 5% HNO3. Both Zn and Se concentrations in organs were determined with an ICP-MS Agilent 7700x/Mass Hunter instrument (Agilent Technologies Inc., Santa Clara, CA, USA). The Zn and Se concentrations in each sample were calculated using linear regression of the standard curves prepared from standard solutions of the respective trace elements.

[2] = tested on: type 2 diabetic ob/ob mice; assay: Triglyceride and glycogen contents in the liver; format: in vivo; details: ob/ob mice after 28 days oral treatment; for Glycogen content in the liver: control 0.08 ± 0.04; for TG content in the liver: control 437 ± 139
Experimental: Lipids in the liver were extracted according to modified Folch method. TG in the extracted lipids was detected using the triglyceride E test wako (Wako Pure Chemicals Co., Osaka, Japan). Glycogen in the liver was extracted with a strong base (30% KOH aq). Then, ethanol precipitation methods (using 95% ethanol and saturated Na2SO4), hydrolysis, and neutralization (with 2.4 M HCl aq and 0.8 M NaOH aq) of the glycogen extracts were performed, resulting in degradation to glucose solution. To detect the glucose levels in the solution using the glucose CII test wako (Wako Pure Chemicals Co., Osaka, Japan), glycogen levels in the liver were estimated. Because the liver sample of normal mice was used up during TG detection and ICP-MS analysis, glycogen content in the liver could not be detected.

[3] = tested on: type 2 diabetic ob/ob mice; assay: Oral glucose tolerance test (OGTT) after 28 days treatment; format: in vivo; details: for Area under the blood glucose concentration-time curve (AUC) in OGTT: 1 g glucose/kg oral, after 28 days treatment, compared with control mice; for Fasting blood glucose level (0 min of OGTT): ob/ob mice after 28 days oral treatment, 12-h fast, control 237 ± 52 mg/dL
Experimental: After treatment with [Zn(hmpt)2] or [Zn(hmps)2] for 28 days, OGTTs were performed. The ob/ob mice and +/+ mice were fasted for 12-h and glucose (1 g/kg body weight) was given orally. Blood samples were obtained from the tail vein at 0, 15, 30, 45, 60, 90, and 120 min after glucose administration. Blood glucose concentrations were measured using a Glucocard.

[4] = tested on: type 2 diabetic ob/ob mice; assay: Daily oral treatment of ob/ob mice for 28 days: blood glucose, body weight, water intake; format: in vivo; details: for Blood glucose level by the end of treatment: [Zn(hmpt)2] 2.5–10 mg Zn/kg, [Zn(hmps)2] 1.0–5.0 mg Zn/kg; for Water intake on the final day: control 12.6 ± 1.6 g, p < 0.01 vs. control; for Body weight change during treatment: loss seen day 22 to 25, recovered after dose reduction
Experimental: The anti-diabetic effects of both [Zn(hmpt)2] and [Zn(hmps)2] were examined in ob/ob mice. The ob/ob and +/+ mice were used as type 2 diabetic and normal (non-diabetic) mice, respectively. The ob/ob (10-week-old) and +/+ (10-week-old) mice received daily oral treatment of either Zn complexes dissolved in PEG-400 or PEG-400 only, respectively. The mice received oral treatments of [Zn(hmpt)2] or [Zn(hmps)2] at doses of 2.5–10 mg Zn/kg or 1.0–5.0 mg Zn/kg for 28 days, respectively. Blood glucose levels (BGL) were measured using a Glucocard (Arkray, Kyoto, Japan) just before treatment with the Zn complexes, and the doses were regulated based on the BGL. Over 28 days, BGL, body weight, food intake, and water intake were measured every day. The number of normal mice (+/+ mice), control mice (ob/ob mice), [Zn(hmpt)2]-treated, and [Zn(hmps)2]-treated mice was 6, 8, 8, and 8 in the initial animal experiments, respectively. This was modified to 6, 6, 7, and 8 after the end of experiments as two control mice died naturally by the end of experiments, and one [Zn(hmpt)2]-treated mouse died from an accident during the oral glucose tolerance test.

[5] = Organ distribution of Zn and Se by ICP-MS after 28 days oral treatment; format: in vivo, mice; details: for Se concentration, kidney: control 6.4 ± 0.2; for Zn concentration, kidney: control 67 ± 3
Experimental: as §1

[6] = tested on: type 2 diabetic ob/ob mice; assay: Histopathology and morphometric analysis of pancreas and liver (HE staining); format: in vivo; details: 14-week-old mice; for Pancreatic islet numbers per section: among normal, control and treated mice; for Glycogen and fat deposition area ratio in the liver: between control and treated mice; for Pancreatic islet area ratio and size: compared with normal mice
Experimental: Excised pancreas and liver from 14-week-old mice were immediately fixed in 10% buffered formalin for a week, sectioned at a thickness of 3 μm, and stained with HE for histopathological examination. HE-stained tissue sections were scanned using a Moticam T2 (Shimadzu Co., Kyoto, Japan) to prepare digital images. Both pancreatic islet area and glycogen and fat deposition areas were calculated with the dedicated image processing software WinROOF (Mitani Corp., Tokyo, Japan).

[7] = tested on: Isolated male Wistar rat epididymal adipocytes; design: method as in PMID 29843022; details: 20 μM Zn complex, means ± SDs, three runs; cited from earlier work
[8] = tested on: Isolated male Wistar rat epididymal adipocytes; assay: Glucose uptake into adipocytes (in vitro insulin-mimetic activity); format: cell-based; details: 20 μM Zn complex, means ± SDs, three runs
Experimental: The in vitro insulin-mimetic activities of Zn complexes were determined by the inhibition of FFA release from adipocytes and increase of glucose uptake into adipocytes. Isolated male Wistar rat epididymal adipocytes (1.0 × 10^6 cells/mL) were prepared and pre-incubated separately with various concentrations of the different Zn complexes in 5 mM glucose in Krebs-Ringer bicarbonate buffer (120 mM NaCl, 1.3 mM CaCl2, 1.2 mM MgSO4, 4.8 mM KCl, 1.2 mM KH2PO4, 24 mM NaHCO3, pH 7.4) containing 2% BSA, with shaking at 100 cycles/min for 30 min at 37 °C. Adrenaline (15 μL, 0.2 mM) was then added to the mixtures, and the resultant solutions were then incubated for 3 h at 37 °C. The reaction mixture was subsequently centrifuged at 650× g for 10 min at 4 °C. FFA levels in the extracellular solutions were determined using an FFA measuring kit (NEFA C-test Wako) and the IC50 value, which is the 50% inhibitory concentration of FFA-release in each complex, was calculated. Glucose concentrations in the solutions with 20 μM Zn complexes were determined using a Fuji Dry Chem system (Fuji Medical Co., Tokyo, Japan) and then the glucose uptake quantities/(1.0 × 10^6 cells) in the 20 μM Zn complexes were calculated.

male Wistar rats = tested on: male Wistar rats; design: method as in earlier work; details: in food 10 µg sodium selenite/kg/day (4.6 µg Se/kg/day), 3 months; cited from earlier work
[9] = dry tissue, ob/ob mice after 28 days oral treatment

N[C@@H](C[SeH])C(=O)O (racemic) [D,L-selenocysteine]
Lethality (male ICR mice; oral once daily 30 mg/kg/day (13.9 mg Se/kg/day)): 100% | Hepatic histology finding (male ICR mice; oral once daily 30 mg/kg/day): vacuolation of centrilobular and peripheral hepatocytes

Cc1occc(=[Se])c1[O-].Cc1occc(=[Se])c1[O-].[Zn+2] [[Zn(hmps)2], bis(3-hydroxy-2-methyl-4(H)-pyran-4-seleno)Zn]
ALP (plasma) [1]: 550 ± 89 **^,##,†† U/L | ALT (plasma) [1]: 355 ± 138 **^,##,†† U/L | AST (plasma) [1]: 200 ± 55 **^,##,†† U/L | BUN (plasma) [1]: 24 ± 3 **^,## mg/dL | Insulin (fasting plasma) [1]: 1.4 ± 0.6 ng/mL | HbA1c [1]: 6.7 ± 0.4 **^,## % | Adiponectin (plasma) [1]: 9.0 ± 0.8 µg/mL | TG (plasma) [1]: 87 ± 11 mg/dL | T-CHO (plasma) [1]: 186 ± 16 mg/dL | Glycogen content in the liver [2]: 0.04 ± 0.01 mg/g liver | TG content in the liver [2]: 443 ± 42 mg/g liver | Area under the blood glucose concentration-time curve (AUC) in OGTT [3]: significantly decreased | Fasting blood glucose level (0 min of OGTT) [3]: 172 ± 38 mg/dL | Blood glucose level by the end of treatment [4]: approximately 200 mg/dL | Water intake on the final day [4]: 6.9 ± 0.5 g | Body weight change during treatment [4]: Body weight gains | Δ[Zn]/Δ[Se] molar ratio, bone ([5]; [Zn(L)] = 1.0, [Zn(L)2] = 0.5): 6.9 | Δ[Zn]/Δ[Se] molar ratio, kidney ([5]; [Zn(L)] = 1.0, [Zn(L)2] = 0.5): 0.25 | Δ[Zn]/Δ[Se] molar ratio, liver ([5]; [Zn(L)] = 1.0, [Zn(L)2] = 0.5): 0.61 | Δ[Zn]/Δ[Se] molar ratio, pancreas ([5]; [Zn(L)] = 1.0, [Zn(L)2] = 0.5): 27 | Se concentration, bone ([5]; dry tissue, ob/ob mice after 28 days oral treatment, control 0.5 ± 0.2): 1.9 ± 0.6 µg/g | Se concentration, muscle ([5]; dry tissue, ob/ob mice after 28 days oral treatment, control 1.3 ± 0.4): 2.5 ± 0.4 **^,#,†† µg/g | Se concentration, liver ([5]; dry tissue, ob/ob mice after 28 days oral treatment, control 2.1 ± 0.3): 5.1 ± 0.6 µg/g | Se concentration, pancreas ([5]; dry tissue, ob/ob mice after 28 days oral treatment, control 2.3 ± 0.6): 3.4 ± 0.8 **^,##,†† µg/g | Se concentration, spleen ([5]; dry tissue, ob/ob mice after 28 days oral treatment, control 2.7 ± 0.8): 9.1 ± 2.4 **^,##,†† µg/g | Se concentration, kidney [5, 9]: 12.7 ± 2.0 **^,##,†† µg/g | Zn concentration, liver ([5]; dry tissue, ob/ob mice after 28 days oral treatment, control 44 ± 5): 46 ± 6 ^##^,† µg/g | Zn concentration, muscle ([5]; dry tissue, ob/ob mice after 28 days oral treatment, control 47 ±10): 41 ± 2 µg/g | Zn concentration, kidney [5, 9]: 68 ± 4 µg/g | Zn concentration, spleen ([5]; dry tissue, ob/ob mice after 28 days oral treatment, control 100 ± 17): 95 ± 12 µg/g | Zn concentration, pancreas ([5]; dry tissue, ob/ob mice after 28 days oral treatment, control 133 ± 19): 158 ± 28 µg/g | Zn concentration, bone ([5]; dry tissue, ob/ob mice after 28 days oral treatment, control 154 ± 7): 162 ± 10 *^,^†† µg/g | Δ[Se], bone ([5]; mouse, in vivo, po): 18 nmol/g | Δ[Se], kidney ([5]; mouse, in vivo, po): 81 nmol/g | Δ[Se], liver ([5]; mouse, in vivo, po): 38 nmol/g | Δ[Se], pancreas ([5]; mouse, in vivo, po): 14 nmol/g | Δ[Se], plasma ([5]; mouse, in vivo, po): 6 nmol/g | Δ[Zn], bone ([5]; mouse, in vivo, po): 124 nmol/g | Δ[Zn], kidney ([5]; mouse, in vivo, po): 20 nmol/g | Δ[Zn], liver ([5]; mouse, in vivo, po): 23 nmol/g | Δ[Zn], pancreas ([5]; mouse, in vivo, po): 375 nmol/g | Δ[Zn], plasma ([5]; mouse, in vivo, po): 6 nmol/g | Se concentration, plasma ([5]; ob/ob mice after 28 days oral treatment, control 0.6 ± 0.1): 1.1 ± 0.2 **^,##,†† µg/mL | Zn concentration, plasma ([5]; ob/ob mice after 28 days oral treatment, control 2.1 ± 0.1): 2.5 ± 0.2 **^,## µg/mL | Pancreatic islet numbers per section [6]: not significantly changed | Glycogen and fat deposition area ratio in the liver [6]: no significant differences | Pancreatic islet area ratio and size [6]: significantly increased | Glucose Uptake [7]: 138 ± 6 µg/10^6 Cells

Cc1occc(=S)c1[O-].Cc1occc(=S)c1[O-].[Zn+2] [[Zn(hmpt)2], bis(3-hydroxy-2-methyl-4(H)-pyran-4-thiono)Zn]
ALP (plasma) [1]: 360 ± 88 U/L | ALT (plasma) [1]: 118 ± 68 U/L | AST (plasma) [1]: 103 ± 25 U/L | BUN (plasma) [1]: 23 ± 2 **^,## mg/dL | Insulin (fasting plasma) [1]: 0.9 ± 0.3 ng/mL | HbA1c [1]: 6.5 ± 0.7 **^,## % | Adiponectin (plasma) [1]: 9.4 ± 0.8 µg/mL | TG (plasma) [1]: 76 ± 25 mg/dL | T-CHO (plasma) [1]: 189 ± 42 mg/dL | Glucose Uptake [8]: 79 ± 26 µg/10^6 Cells | Glycogen content in the liver [2]: 0.03 ± 0.01 mg/g liver | TG content in the liver [2]: 309 ± 134 mg/g liver | Area under the blood glucose concentration-time curve (AUC) in OGTT [3]: significantly decreased | Fasting blood glucose level (0 min of OGTT) [3]: 143 ± 75 mg/dL | Blood glucose level by the end of treatment [4]: approximately 200 mg/dL | Water intake on the final day [4]: 7.5 ± 2.5 g | Body weight change during treatment [4]: body weight loss | Se concentration, kidney [5, 9]: 5.8 ± 0.5 µg/g | Zn concentration, kidney [5, 9]: 73 ± 4 µg/g | Δ[Zn], bone ([5]; mouse, in vivo, po): 517 nmol/g | Δ[Zn], kidney ([5]; mouse, in vivo, po): 86 nmol/g | Δ[Zn], liver ([5]; mouse, in vivo, po): 453 nmol/g | Δ[Zn], pancreas ([5]; mouse, in vivo, po): 302 nmol/g | Δ[Zn], plasma ([5]; mouse, in vivo, po): 3 nmol/g | Pancreatic islet numbers per section [6]: not significantly changed | Glycogen and fat deposition area ratio in the liver [6]: no significant differences | Pancreatic islet area ratio and size [6]: significantly increased

O=[Se]([O-])[O-].[Na+].[Na+] [sodium selenite]
Hepatic histology finding (male Wistar rats): necrotic areas in hepatic sections were observed
